What was measured:
Format in all cases: cell-based
E. coli (CTX-M-15) = experiment: microbe, parasite or virus in culture; settings: Escherichia coli, Pip alone, read-out: MIC of piperacillin
Method: (§1) MICs were determined by the broth microdilution method in accordance with Clinical and Laboratories Institute (CLSI) guidelines. In brief, fresh overnight bacterial cultures were suspended in sterile saline, and adjusted to a 0.5 McFarland turbidity standard. Bacterial suspensions were then diluted in cation adjusted Mueller-Hinton Broth (MHB II; BBL) to yield a final inoculum of approximately 5×10^5 colony-forming units (CFU)/mL. A master plate of antibiotics was prepared at a concentration equivalent to hundred-fold the highest desired final concentration in 100% dimethyl sulfoxide (DMSO). The master antibiotic plate was then diluted by serial twofold dilution with a multichannel pipette. The resulting dilution series of compounds were diluted 1:10 with sterile water or a solution of beta-lactamase inhibitor prepared at a concentration equivalent to eleven-fold the desired final concentration in deionized water leading to a 10% DMSO final concentration. A volume of 10 μL of the drug dilution series was transferred to 96-well assay plates. Assay plates were inoculated with 90 μL of bacterial suspensions and incubated at 35° C. for 20 hrs. The assay plates were read using a microtiter plate reader (Molecular Devices) at 600 nm as well as by visual observation with a reading mirror. The lowest concentration of the compound that prevented visible growth was recorded as the MIC.
(§2) Synergy or potentiation of beta-lactam antibiotics through inhibition of Q-lactamases was assessed against an isogenic panel of E. coli strains, each expressing a unique beta-lactamase, and against clinical strains.
(§3) Strain NB27273 (BW25113 pspB::Km^r) was obtained from the Keio transposon insertion collection. The strain has the pspB gene replaced by a kanamycin resistance marker (BW25113 pspB::Km^r). This strain was cured of the transposon in pspB via FLP recombinase using published methodology. The resulting strain, BW25113 pspB, was used as a host for multicopy vectors expressing key beta-lactamases. Multicopy plasmids directing constitutive expression of beta-lactamases were established as follows: Synthetic, codon optimized genes encoding E. coli KPC-2, SHV-12 and CTX-M-15 beta-lactamases were made by DNA2.0 (Palo Alto, Calif.). Each of the synthetic fragments were designed to contain NotI and NcoI restriction sites at their termini, allowing ligation into a NotI/NcoI digested pET28a(+) derivative for protein expression. […] The codon optimized nucleotide sequences and relevant primer recognition information is shown below:
(§4) The PCR products were then digested with XhoI and EcoRI and ligated into similarly digested plasmid pAH63-pstS(BlaP). […] Therefore, expression of beta-lactamases from pAH63-pstS(BlaP) based constructs is constitutive and the signal sequence is provided to direct these proteins to the periplasm. […] These fragments were then digested with XbaI and EcoRI, and each was inserted into pBAD18-kan that had been digested with the same enzymes to generate multicopy vectors expressing KPC-2, SHV-12 and CTX-M-15, respectively. These vectors were transformed into BW25113 pspB to generate strains NB27273-CDY0033 (expressing KPC-2), NB27273-CDY0030 (expressing SHV-12), NB27273-CDY0034 (expressing CTX-M-15) and NB27273-CDY0036 (expressing AmpC). The pBAD18-kan vector also contains the TEM promoter region and signal sequence, (but lacks any intact beta-lactamase genes) and was transformed into BW25113 pspB using standard protocols to generate the control strain NB27273-CDY0026.

E. coli (KPC-2) = experiment: microbe, parasite or virus in culture; settings: Escherichia coli, read-out: MIC of piperacillin
Method: as §1, §2, §3, §4

E. coli (SHV-12) = experiment: microbe, parasite or virus in culture; settings: Escherichia coli, Pip alone, read-out: MIC of piperacillin
Method: as §1, §2, §3, §4

E. coli (TEM-10) = experiment: microbe, parasite or virus in culture; settings: Escherichia coli, Pip alone, read-out: MIC of piperacillin
Method: as §1, §2
(§5) Construction of E. coli isogenic strains, NB27273-CDY0105 (OXA-18) and NB27273-CDY0048 (TEM-10). […] The gene encoding OXA-18 was then digested with XhoI and EcoRI and inserted into this vector, from which the gene for GIM-1 had been removed with XhoI and EcoRI.
From this template DNA, three fragments were generated by PCR using the following primer pairs;
This fragment was then digested with XbaI and EcoRI and inserted into pBAD-kan which was also cut with the same enzymes.
(§6) These final vectors for expression of OXA-18 and TEM-10 were transformed into BW25113 pspB to generate strains NB27273-CDY0105 (expressing OXA-18) and NB27273-CDY0048 (expressing TEM-10).

E. coli (AmpC) = experiment: microbe, parasite or virus in culture; settings: Escherichia coli, Pip alone, read-out: MIC of piperacillin
Method: as §1, with “MIC. Performance of the assay was monitored by testing aztreonam against laboratory quality control strains in accordance with guidelines of the CLSI.” for “MIC.”
as §2
The gene encoding AmpC was PCR amplified from the genome of strain P. aeruginosa PAO1 (NB52019) (GenBank ID U5R279) using primer pair E252 (gccCTCGAGggcgaggccccggcggatcgc) (SEQ ID NO: 17) and E253 (tgaGAATTCtcagcgcttcagcggcacct) (SEQ ID NO: 18).
The PCR products were then digested with XhoI and EcoRI and ligated into similarly digested plasmid pAH63-pstS(BlaP). Plasmid pAH63-pstS(BlaP) is a derivative of plasmid pAH63 (J Bacteriol: 183(21): 6384-6393) made by cloning the TEM-1 (bla) promoter and signal peptide encoding region from plasmid pBAD (J Bacteriol. 1995 July 177(14):4121-30) into plasmid pAH63. This fragment was PCR amplified from pBAD using primer pair E192 (ttcaCTGCAGtgaacgttgcgaagcaacggC) (SEQ ID NO:19) and E194 (TCGAggatcctcgagagcaaaaacaggaaggcaaaatgccg) (SEQ ID NO:20), digested with PstI and BamHI and inserted into similarly digested plasmid pAH63. Therefore, expression of beta-lactamases from pAH63-pstS(BlaP) based constructs is constitutive and the signal sequence is provided to direct these proteins to the periplasm. Plasmid pAH63 based vectors are used for insertion into the genome in single copy, however, to provide higher expression levels to allow more sensitive detection of the susceptibility of compounds to the expressed beta-lactamases, the expression inserts contained in these vectors were moved to the replicative multicopy vector pBAD-Kan (J Bacteriol. 1995 July 177(14):4121-30). To accomplish this, the inserts encompassing the beta-lactamase genes, with the associated TEM promoter and signal sequences, were PCR amplified from their corresponding vectors using primer E268 (ccgTCTAGAcggatggcctttttgcgtttc) (SEQ ID NO:21) and E202 (aatcGAATTCttactgaccattaacgcccaagc) (SEQ ID NO:22) for the KPC2 construct, E204 (aatcGAATTCttaacgctgccagtgctcaatc) (SEQ ID NO:23) for the SHV-12 construct and E203 (aatcGAATTCttacagaccgtcggtgacaatc) (SEQ ID NO:24) for the CTX-M-15 construct. These fragments were then digested with XbaI and EcoRI, and each was inserted into pBAD18-kan that had been digested with the same enzymes to generate multicopy vectors expressing KPC-2, SHV-12 and CTX-M-15, respectively. […]

E. coli (OXA-18) = experiment: microbe, parasite or virus in culture
Method: as §1, §2, §5, §6

[1] = tested on: Enterobacter cloacae NB25055 (CMY-2); experiment: Potentiation of piperacillin in beta-lactam resistant clinical isolate
Method: as §1, with “MIC. Performance of the assay was monitored by testing aztreonam against laboratory quality control strains in accordance with guidelines of the CLSI.” for “MIC.”
as §2

[2] = tested on: K. pneumoniae NB29082 (KPC-2); experiment: as above
Method: as §1, with “MIC. Performance of the assay was monitored by testing aztreonam against laboratory quality control strains in accordance with guidelines of the CLSI.” for “MIC.”
as §2

S. aureus NB01437 (BLA+) = experiment: as above
Method: as §1, with “MIC. Performance of the assay was monitored by testing aztreonam against laboratory quality control strains in accordance with guidelines of the CLSI.” for “MIC.”
as §2

| SMILES | MIC (E. coli (CTX-M-15)) [µg/mL] | MIC (E. coli (KPC-2)) [µg/mL] | MIC (E. coli (SHV-12)) [µg/mL] | MIC (E. coli (TEM-10)) [µg/mL] | MIC (E. coli (AmpC)) [µg/mL] | MIC (E. coli (OXA-18); Escherichia coli, Pip alone, read-out: MIC of piperacillin) [µg/mL] | Activity of piperacillin ([1]; piperacillin alone) [µg/mL] | Activity of piperacillin ([2]; piperacillin alone) [µg/mL] | Activity of piperacillin (S. aureus NB01437 (BLA+); piperacillin alone) [µg/mL] | MIC of piperacillin with beta-lactamase inhibitor (E. coli (OXA-18); Pip + BLI at 4 μg/mL) [µg/mL] | Activity of piperacillin with beta-lactamase inhibitor ([1]; Pip + BLI at 4 μg/mL) [µg/mL] | Activity of piperacillin with beta-lactamase inhibitor ([2]; Pip + BLI at 4 μg/mL) [µg/mL] | Activity of piperacillin with beta-lactamase inhibitor (S. aureus NB01437 (BLA+); Pip + BLI at 4 μg/mL) [µg/mL] |
| --- | --- | --- | --- | --- | --- | --- | --- | --- | --- | --- | --- | --- | --- |
| CCN1CCN(C(=O)N[C@@H](C(=O)N[C@@H]2C(=O)N3C2SC(C)(C)[C@@H]3C(=O)O)c2ccccc2)C(=O)C1=O (stereo partly shown) [Piperacillin] | > 32 | > 32 | > 32 | > 32 | > 32 | > 32 | >64 | >64 | 64 |  |  |  |  |
| C[C@]1(Cn2ccnn2)[C@H](C(=O)O)N2C(=O)C[C@H]2S1(=O)=O [Tazobactam] |  |  |  |  |  |  |  |  |  | 8 | 64 | >64 | 1 |

— patent US10065957B2, “Beta-lactamase inhibitors” (Novartis AG, priority 2016, dated 2018)
